From US11730689B2, “Process for treating hair” (Davines S.p.A., priority 2018, dated 2023)

Key:
[1] = Color fastness to washing (Example 1): evaluation of rinsing waters; design: species or system human; settings: 5 g of 2% water solution, 10 minutes at room temperature; rinsed 5 times with Sodium Laureth-2 Sulfate solution pH 7.5; FIG. 1; six swatches incl. non-treated
Method: The coloring formulation was applied in a quantity sufficient to color all the fibers of the swatches, then wrapped in an aluminum foil and left on for 35 minutes.
Afterwards, the swatches were rinsed with Davines SOLU shampoo of the Essential Hair Care line, directly on the previously wet swatches and rinsed for 30 seconds in order to remove the mixture.
Then, swatches are treated as follows:
5 g of 2% liposol maleate (Sabinsa Corporation) water solution,
5 g of 2% Olaplex® Bond Multiplier No 1 water solution.
A non-treated swatch is used as reference.
The specific treatments are left on hair fora period of 10 minutes at room temperature.
After 10 minutes, the swatches are rinsed 5 times with a Sodium Laureth-2 Sulfate (Zetesol Les 2/SL®) solution to pH 7.5. The rinsing procedure consists on providing 1.5 g of the surfactant solution per swatch, putting it on the swatch, and massaging for 10 seconds, then rinsing.
The rinsing treatment is carried out dipping the individual swatch for 10 times in a beaker containing 100 g water, in order to collect the rinsing water.

[2] = Protection of hair from bleaching treatment (Example 4), sensorial analysis; settings: 3.5 g of a 12% water solution added to bleaching powder + Activator 40 vol. mixture; 30 minutes, treatment done twice
Method: The following specific compositions were separately added to the mixture:
a) 3.5 g of a 12% Liposol maleate (Sabinsa Corporation) water solution;
b) 3.5 g of a 12% On Protection (7% Liposol maleate and 13% maleic) water solution;
e) 3.5 g of a 12% Olaplex® Bond Multiplier No 1 water solution;
The swatches were left on for 30 minutes at room temperature wrapped in an aluminum foil.
After that, the swatches were rinsed using cold running water and carefully washed using Davines SOLU shampoo of the Essential Hair Care line.
After the left on period, the swatches were rinsed using cold running water for removing the mixture and further treated with Davines SOLU shampoo of the Essential Hair Care line.
Then, 2.5 g of the conditioner MOMO of the Essential Hair Care line are applied; left on for one minute and subsequently rinsed using cold running water.
Finally, the swatches were towel dried, dried with an airdryer and combed using a fine-tooth comb.

[3] = Hair resistance to bleaching treatment (Example 5), tensile strength test; settings: 9 g (maleic acid, liposol maleate: 20% water solution) added to 20 g bleaching powder + 40 g Activator 40 vol.; 50 minutes; On Protection = 13% maleic acid and 7% Liposol maleate; five measurements, 6 cm hair, 0.5 mm/sec
Method: Five swatches of hair, weight and length standard, level 5, are treated with the coloration Davines Mask With Vibrachrom 4.0 mixed with the activator Davines Activator 20 vol., emulsion containing hydrogen peroxide, in a ratio of 1:1.5 as disclosed in the Davines manual and left on at room temperature for 35 minutes in a ratio of 1:1.5 as disclosed in the Davines manual.
During the left on period, the swatches were wrapped up in tinfoil and left at room temperature. After that, the swatches were rinsed with abundant running water and then washed with the Essential Hair Care SOLU shampoo of Davines line, washed and carefully dried with an airdryer.
At the end of the coloring process, the bleaching treatment starts.
Every swatch is decolored with 20 g of the bleaching powder Davines Mask Hair Bleaching Powder mixed with 40 g Davines Activator 40 vol.
Before application on the swatches, the mixtures are singularly added with the following solutions:
9 g Liposol maleate (Sabinsa Corporation)—20% water solution,
9 g Olaplex® Bond Multiplier No 1,
During the bleaching process, all the swatches are wrapped up in tinfoil, and left on for 50 minutes at room temperature.
After the left on period, the swatches are shampooed using Davines Hair Care DEDE shampoo and combed using a large-tooth comb.
A tensile strength test was carried out on all single swatches. […]

[4] = Hair fastness and easy bleaching (Example 7), tensile strength test; design: species or system human; settings: 120 minutes
Method: Four swatches of human hair, weight and length level 5, are used.
The swatches are bleached using a mixture of 20 g Davines Mask Hair Bleaching Powder and 40 g Davines Activator 20 vol. to which the following compounds are added:
b) 3.5 g 12% Liposol maleate (Sabinsa Corp.) in water,
c) 3.5 g 12% Olaplex® Bond Multiplier No 1 in water,
During the bleaching process, all the swatches are wrapped up in aluminum foil, and afterward they are left on for 120 minutes at room temperature.
After the left on period, every swatch is rinsed with abundant running water and washed with a Sodium Lauth-2 sulfate (Zetesol Les 2/SL®) 15% water solution and to a pH 7.5, and dried by combing with a large-tooth comb.
The swatches are subsequently washed until a complete removal of the product.
The Tensile Strength Test was made with a dynamometer Texture Analysis Plus (Extended Height) using pneumatic clamps.
The tensile strength of hair treated with different compositions was compared with the tensile strength of the non-bleached virgin swatch (positive reference) and the tensile strength of the swatch treated only with Davines Mask Hair Bleaching Powder without a protective agent (negative reference). Five measurements for each single 6 cm long hair, and at constant rate of 0.5 mm/sec., were made.

[5] = Reducing treatment: curl resistance to repeated washings (Example 8); settings: 1.8 ml added to 100 ml Balance Curling System #1 and to 100 ml Bouclè neutralizer (maleic acid, liposol maleate as 20% solution); 40 washings with 15% Sodium laureth-2 sulfate pH 7.5
Method: 1) 100 ml Davines Balance Curling System #1,
3) 100 ml Davines Balance Curling System #1 added with 1.8 ml of a Liposol maleate 20% solution (Sabinsa Corporation),
(§1) 4) 100 ml Davines Balance Curling System #1 added with 1.8 ml of Olaplex® Bond Multiplier No 1,
The above described reducing formulations (2 ml per hair swatch) were applied and left on for 30 minutes.
After the left on period, the swatches were washed with hot running water for one minute and left 10 minutes towel dried on air without any treatment, in order to stabilize the treatment.
Five neutralizing solutions are prepared:
1) 100 ml neutralizing solution Davines Bouclè Biowaving System Extra Delicate Neutralizer hydrogen peroxide 2.1%,
3) 100 ml neutralizing solution Davines Bouclè Biowaving System Extra Delicate Neutralizer added with 1.8 ml of Liposol Maleate 20% water solution (Sabinsa Corporation),
4) 100 ml neutralizing solution Davines Bouclè Biowaving System Extra Delicate Neutralizer added with 1.8 ml Olaplex® Bond Multiplier No 1,
Every swatch is left on for 10 minutes at room temperature.
Directly on the swatches and without rinsing, the neutralizing treatment is repeated in the same way, leaving on for other 10 minutes, for total 20 minutes.
After the left on period, the formulation in excess is rinsed with running water and the curlers are dried with a drier for 30 minutes. […]

[6] = Reducing treatment: hair conditioning (Example 9), evaluation by skilled technicians; design: species or system human; settings: 5 g of 2% water solution (On Protection: 10% in method, 2% in results), 2 x 7.30 minutes after reducing treatment; 5 washings
Method: The coloring formulation was applied mixed with Davines Activator 20 vol., hydrogen peroxide emulsion, according to the Davines operating manual, in a 1:1.5 ratio.
The color was carefully applied in a quantity sufficient to color all the fibers of the swatches, then left on for 35 minutes at room temperature.
After that, the swatches were carefully rinsed with SOLU shampoo of the Essential Hair Care Davines line, in order to eliminate the excess color.
5 grams per swatch of the reducing formulation Davines Balance Curling System #1 are applied on the wet and towel dried swatches, and left on for 30 minutes.
After the left on period, the swatches are washed with water and ready to be treated with:
1) 5 g of maleic 2% water solution,
2) 5 g Liposol Maleate (Sabinsa Corporation) 2% water solution,
3) 5 g Olaplex® Bond Multiplier No 1, 2% water solution,
All the swatches are left on at room temperature for 7.30 minutes.
This treatment is repeated without rinsing, directly on the swatches, for 7.30 minutes (overall 15 minutes).
After the left on time, the swatches are rinsed with running water to eliminate the excess product.
(§2) Then, the swatches are carefully washed with a Sodium Laureth-2 sulfate (Zetesol Les 2/SL®) 15% and to a pH of 7.5. […]

[7] = Sensory properties of hair treated with a reducing treatment after coloring (Example 10); settings: 5 g of 2% water solution, 2 x 7.30 minutes after bleaching, coloring and reducing treatment; washed with Sodium Laureth-2 sulfate 15% pH 7.5
Method: Four swatches of level 7 natural hair, standard weight and width, are bleached two times using the Davines Mask Hair Bleaching Powder mixed with an activator, hydrogen peroxide emulsion, Davines Activator 40 vol. in a 1:2 ratio.
The above described mixture is applied on single swatches in order to obtain a homogenous distribution of the product on the hair fibers.
The swatches are covered with an aluminum foil and left on for 50 minutes at room temperature. At the end of the left on period, the swatches are rinsed and carefully washed with a shampoo of the Davines Essential Hair Care SOLU line and dried. The entire process is repeated two times until to obtain the lightening level 11 according to Davines Color Manual.
The swatches as above treated are colored with Davines Mask with Vibrachrom 10.01 mixed with Davines Activator 20 vol. in a ratio 1:1.5 as disclosed in the Davines manual.
The coloration was applied to every swatch in an amount to obtain an homogeneous distribution of the product on all the hair fibers of the single swatch.
At the end of the coloration step, after rinsing with shampoo SOLU of the Essential Hair Care line of Davines and drying, the swatches are treated with 5 g of the Davines reducing formulation called Balance Curling System #1 and left on for 30 minutes at room temperature.
Then, the swatches are rinsed with water and treated as follows: […]

[8] = Color retention after reducing treatment (Example 11), evaluation by skilled technicians; design: species or system human; settings: added to reducing composition and to neutralizing solution (1.8 ml per 100 ml) and applied afterwards as solution in 45 ml water, 7.5 minutes
Method: Five hair samples from a human subject having a standard weight and a width and level 7 are colored with a Davines Mask with Vibrachrom 3.51. The coloring formulation was applied mixed with Davines Activator 20 vol., hydrogen peroxide emulsion, according to Davines operating manual, in a 1:1.5 ratios. The color was carefully applied in a quantity sufficient to give a homogeneous color to all fibers of the swatches. The mixture was left on for 35 minutes at room temperature.
After that, the swatches were carefully rinsed with shampoo Davines SOLU of the Essential Hair Care line, in order to eliminate the excess color.
After the left on period, the swatches were treated with the following reducing compositions:
1) 100 ml Davines Balance Curling System #1
as §1
On the wet and towel dried swatches, 5 grams of the above described reducing formulations are applied per swatch, and then left on for 30 minutes.
After the left on period, the swatches are washed with hot running water for 1 minute and left 10 minutes towel dried on air without any treatment, in order to stabilize the treatment.
Five neutralizing solutions are prepared: […]
The swatches were evaluated from skilled technicians as follows:

[9] = Hair resistance to reducing treatment (Example 12), tensile strength test
Method: Five level 5 natural hair swatches, weight and width standard, are washed with Essential Hair Care SOLU shampoo.
Then, the swatches are towel dried with adsorbing paper for removing excess water and subsequently enrolled on 1 cm diameter curlers.
2 ml of Davines Balance Curling System #1 perm are applied on all the curlers using a spout dispenser and left on for 30 minutes.
After that, every curler is rinsed with abundant water for 1 minute using cold running water.
Then, the swatches are neutralized using different neutralizing solutions:
2.5 g Davines Bouclè Biowaving System Extra Delicate Neutralizer (hydrogen peroxide 2.1%),
2.5 g liposol maleate (Sabinsa Corp.) 2% water solution,
2.5 g Olaplex® Bond Multiplier No 1, 10% water solution,
The swatches are left on for 7.30 minutes at room temperature.
Without rinsing, directly on the swatches, the application of the neutralizing solutions is repeated according to the same procedure for other 7.30 minutes, totally 15 minutes.
After the left on period, the excess product is rinsed with cold running water and the curlers are dried in an oven ISCO at 53° C.±1 for 4 hours.
The swatches are removed from the curlers and the curl sinuosity is evaluated using a camera.
as §2
Then, the tensile strength was evaluated. […]

Water solubility = assay type: physicochemical

SMILES: CN(C)CCNC(=O)CCCCC1CCSS1.O=C(O)/C=C\C(=O)O (stereo not drawn) [Liposol maleate, 1,2-dithioane-3-pentanamide, N-(2-dimethylamino) ethyl salified with a mole of maleic acid]
- limpidity / color intensity of the rinsing water (ranking) [1]: third
- silkiness, smoothness and compactness of the swatches (sensorial analysis, ranking) [2]: better in relation to compactness, silkiness and smoothness
- Tensile Strength N [3]: 0.98 ± 0.11 N
- Tensile Strength N ([4]; 3.5 g 12% in water added to 20 g bleaching powder + 40 g Activator 20 vol., On Protection = 12% Liposol maleate + 8% maleic acid, five measurements, 6 cm hair, 0.5 mm/sec): 1.06 ± 0.13 N
- resistance to hair breakage in comparison to other treatments (in words) ([4]; 3.5 g 12% in water added to bleaching mixture): clearly show an improvement
- maintenance of the deviousness of the curls after repeated washings (ranking by skilled personnel) [5]: maintain the deviousness of the curls in a lower degree
- softness and silkiness (ranking by skilled technicians) [6]: regard as preferred
- chromatic differences / color retention [7]: do not present significant chromatic differences
- color retention after the reducing treatment (evaluated by skilled technicians) [8]: more intensive and vibrating
- Tensile Strength N ([9]; 2.5 g as neutralizing solution after perm (maleic acid, liposol maleate 2%; Olaplex, On Protection 12% liposol maleate/8% maleic acid 10% water solution), 2 x 7.30 minutes, 40 washings): 1.04 ± 0.16 N
- protection of the swatches (conclusion in words) ([9]; in comparison with Olaplex® Bond Multiplier No 1 and Davines Bouclè Biowaving System Extra Delicate Neutralizer): more protected

SMILES: O=C(O)/C=C\C(=O)O [maleic acid, cis-butendioic acid]
- solubility in water (Water solubility): water soluble
